Assay results reported in ChEMBL document CHEMBL4304741, “Modification and Biological Evaluation of a Series of 1,5-Diaryl-1,2,4-triazole Compounds as Novel Agents against Pancreatic Cancer Metastasis through Targeting Myoferlin” (J Med Chem, 2019).
Calls of active or inactive are those of the source. The rule behind the calls is not given here.

Legend:
PANC-1 [1] = test: Antimigratory activity against human PANC1 cells measured after 18 hrs in presence of mitomycin C using crystal violet staining by inverted microscopy-based transwell assay; assay type: functional, cell-based; conditions: PANC-1, 18 h
PANC-1 [2] = test: Antiinvasive activity against human PANC1 cells measured after 18 hrs in presence of mitomycin C using crystal violet staining by inverted microscopy-based matrigel coated transwell assay; assay type: functional, cell-based; conditions: PANC-1, 18 h
[3] = Toxicity in Balb/c nude mouse xenografted with PANC1 cells assessed as pathological changes in lung at 25 mg/kg/day, ip by H and E staining-based microscopic analysis; assay type: organism-based; conditions: in vivo
[4] = Toxicity in Balb/c nude mouse xenografted with PANC1 cells assessed as pathological changes in liver at 25 mg/kg/day, ip by H and E staining-based microscopic analysis; assay type: organism-based; conditions: in vivo
[5] = Toxicity in Balb/c nude mouse xenografted with PANC1 cells assessed as pathological changes in kidney at 25 mg/kg/day, ip by H and E staining-based microscopic analysis; assay type: organism-based; conditions: in vivo
[6] = Toxicity in Balb/c nude mouse xenografted with PANC1 cells assessed as pathological changes in heart at 25 mg/kg/day, ip by H and E staining-based microscopic analysis; assay type: organism-based; conditions: in vivo
[7] = Toxicity in Balb/c nude mouse xenografted with PANC1 cells assessed as pathological changes in spleen at 25 mg/kg/day, ip by H and E staining-based microscopic analysis; assay type: organism-based; conditions: in vivo
PANC-1 [8] = test: Antimetastatic activity against human PANC1 cells harboring luciferase reporter gene xenografted in Balb/c nude mouse at 25 mg/kg/day, ip measured every 10 days by bioluminescence imaging analysis; assay type: functional, organism-based
PANC-1 [9] = test: Antimetastatic activity against human PANC1 cells harboring luciferase reporter gene xenografted in Balb/c nude mouse assessed as mouse survival at 25 mg/kg/day, ip (reference value: 25%); assay type: functional; conditions: PANC-1, ip
[10] = Toxicity in Balb/c nude mouse xenografted with PANC1 cells assessed as body weight loss at 25 mg/kg/day, ip; assay type: organism-based; conditions: in vivo
Myoferlin [11] = target: T1, Myoferlin (Homo sapiens, UniProt Q9NZM1); test: Binding affinity to recombinant human GST-tagged MYOF C2 domain (3445 to 3912 residues) expressed in Escherichia coli BL21 (DE3) at 0.03125 to 0.5 uM by surface plasmon resonance analysis
Myoferlin [12] = target: T1, Myoferlin; test: Binding affinity to recombinant human GST-tagged MYOF C2 domain (3445 to 3912 residues) expressed in Escherichia coli BL21 (DE3) at 0.3125 to 10 uM by surface plasmon resonance analysis
PANC-1 [13] = test: Antimigratory activity against MYOF-knockout human PANC1 cells measured after 18 hrs in presence of mitomycin C using crystal violet staining by inverted microscopy-based transwell assay; assay type: functional, cell-based

T1 sequence (Q9NZM1 whole entry, the tested form may be a part): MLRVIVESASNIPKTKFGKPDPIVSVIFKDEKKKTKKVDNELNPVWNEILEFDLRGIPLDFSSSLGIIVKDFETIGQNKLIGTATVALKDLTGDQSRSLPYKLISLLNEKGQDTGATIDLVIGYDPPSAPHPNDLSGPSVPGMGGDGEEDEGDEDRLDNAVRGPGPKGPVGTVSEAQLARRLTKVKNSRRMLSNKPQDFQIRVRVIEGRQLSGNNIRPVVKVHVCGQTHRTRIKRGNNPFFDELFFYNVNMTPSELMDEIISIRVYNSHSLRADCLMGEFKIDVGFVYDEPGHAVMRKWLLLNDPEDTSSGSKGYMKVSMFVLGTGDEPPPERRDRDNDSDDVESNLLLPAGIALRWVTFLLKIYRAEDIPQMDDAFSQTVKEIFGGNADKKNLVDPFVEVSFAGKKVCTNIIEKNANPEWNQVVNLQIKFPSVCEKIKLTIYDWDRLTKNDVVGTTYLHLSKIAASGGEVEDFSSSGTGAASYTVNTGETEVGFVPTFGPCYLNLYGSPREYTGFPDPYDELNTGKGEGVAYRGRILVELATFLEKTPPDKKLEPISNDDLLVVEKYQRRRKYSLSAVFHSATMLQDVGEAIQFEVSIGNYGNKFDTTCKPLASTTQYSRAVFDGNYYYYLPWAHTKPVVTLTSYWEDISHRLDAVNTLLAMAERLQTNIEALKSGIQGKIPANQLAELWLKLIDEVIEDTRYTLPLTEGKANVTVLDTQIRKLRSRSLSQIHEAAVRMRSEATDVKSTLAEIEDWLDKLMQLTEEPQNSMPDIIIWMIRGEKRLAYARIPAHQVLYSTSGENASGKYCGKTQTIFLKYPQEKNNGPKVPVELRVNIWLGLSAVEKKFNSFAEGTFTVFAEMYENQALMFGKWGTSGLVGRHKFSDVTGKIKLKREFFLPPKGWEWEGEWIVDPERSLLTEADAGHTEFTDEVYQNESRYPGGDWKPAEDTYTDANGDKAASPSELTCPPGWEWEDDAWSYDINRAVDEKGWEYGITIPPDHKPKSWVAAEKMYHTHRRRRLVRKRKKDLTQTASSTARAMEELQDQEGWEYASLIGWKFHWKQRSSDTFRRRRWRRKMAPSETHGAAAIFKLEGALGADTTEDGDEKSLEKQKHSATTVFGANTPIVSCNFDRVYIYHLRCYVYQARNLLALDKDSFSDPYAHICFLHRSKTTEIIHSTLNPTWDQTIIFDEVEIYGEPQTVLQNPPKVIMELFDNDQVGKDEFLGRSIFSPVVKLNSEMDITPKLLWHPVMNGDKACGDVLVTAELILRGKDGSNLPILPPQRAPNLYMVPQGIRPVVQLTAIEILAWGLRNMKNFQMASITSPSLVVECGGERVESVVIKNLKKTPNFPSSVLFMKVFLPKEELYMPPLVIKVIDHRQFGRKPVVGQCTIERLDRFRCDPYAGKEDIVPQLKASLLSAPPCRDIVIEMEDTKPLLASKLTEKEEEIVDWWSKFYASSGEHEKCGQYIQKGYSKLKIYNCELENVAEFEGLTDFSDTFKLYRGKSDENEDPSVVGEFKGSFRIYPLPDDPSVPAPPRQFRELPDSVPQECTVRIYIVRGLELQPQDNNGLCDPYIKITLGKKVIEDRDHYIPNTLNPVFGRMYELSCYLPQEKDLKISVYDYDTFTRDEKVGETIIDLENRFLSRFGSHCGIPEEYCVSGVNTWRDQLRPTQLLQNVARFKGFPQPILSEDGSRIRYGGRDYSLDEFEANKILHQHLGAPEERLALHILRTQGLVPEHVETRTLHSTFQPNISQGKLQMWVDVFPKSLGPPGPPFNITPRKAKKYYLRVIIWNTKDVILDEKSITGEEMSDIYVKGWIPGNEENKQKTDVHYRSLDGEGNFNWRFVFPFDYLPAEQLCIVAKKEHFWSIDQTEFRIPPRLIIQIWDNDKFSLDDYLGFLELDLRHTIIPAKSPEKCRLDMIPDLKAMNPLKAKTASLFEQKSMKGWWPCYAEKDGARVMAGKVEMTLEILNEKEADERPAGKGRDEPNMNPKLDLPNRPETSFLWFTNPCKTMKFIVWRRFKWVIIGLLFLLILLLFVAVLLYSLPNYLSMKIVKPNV

| Structure (SMILES) | IC50 (PANC-1 [1]) | also measured |
| --- | --- | --- |
| COc1ccc(-c2nc(C)nn2-c2cccc(C(=O)NCCc3cccs3)c2)cc1 | > 20000 nM | – |
| COc1ccccc1-c1nc(C)nn1-c1cccc(C(=O)NCCc2ccc(Br)cc2)c1 | 7920 nM | IC50 (PANC-1 [2]): 10900 nM |
| COc1ccc(-c2nc(C)nn2-c2cccc(C(=O)NCCc3ccc(Cl)cc3)c2)cc1 | 4360 nM | IC50 (PANC-1 [2]): 9870 nM |
| Nc1ccn([C@@H]2O[C@H](CO)[C@@H](O)C2(F)F)c(=O)n1 [GEMCITABINE] | 160 nM | Activity [3]: Non-Toxic; Activity [4]: Non-Toxic; Activity [5]: Non-Toxic; Activity [6]: Non-Toxic; Activity [7]: Non-Toxic; Activity (PANC-1 [8]): Active; IC50 (PANC-1 [2]): 160 nM; survival at 25 mg/kg/day (PANC-1 [9]): 60%; Activity [10]: Non-Toxic |
| COc1ccc(-c2nc(C)nn2-c2cccc(C(=O)NCCCc3ccc(Cl)cc3)c2)cc1 | > 20000 nM | – |
| CCc1nc(-c2cccc(C(=O)NCCCCc3ccccc3)n2)n(-c2ccc(OC)cc2)n1 | 9640 nM | – |
| CC(=O)O[C@@]12CO[C@@H]1C[C@H](O)[C@@]1(C)C(=O)[C@H](O)C3=C(C)[C@@H](OC(=O)[C@H](O)[C@@H](NC(=O)OC(C)(C)C)c4ccccc4)C[C@@](O)([C@@H](OC(=O)c4ccccc4)[C@H]21)C3(C)C | – | Activity (PANC-1 [13]): Active |
| COc1ccc(-c2nc(C)nn2-c2cccc(C(=O)NCCc3ccccn3)c2)cc1 | > 20000 nM | – |
| COc1ccc(-c2nc(C)nn2-c2cccc(C(=O)NCCc3ccncc3)c2)cc1 | > 20000 nM | – |
| COc1ccccc1-c1nc(C)nn1-c1cccc(C(=O)NCCc2ccc(Cl)cc2)c1 | > 20000 nM | IC50 (PANC-1 [2]): 27600 nM |
| COc1ccc(-c2nc(C)nn2-c2cccc(C(=O)NCCCc3ccc(Br)cc3)c2)cc1 | > 20000 nM | – |
| COc1ccc(-c2nc(C)nn2-c2cccc(C(=O)NCCc3ccc(Br)cc3)c2)cc1 | 3240 nM | IC50 (PANC-1 [2]): 2960 nM |
| CCc1nc(-c2cnc(OC)cn2)n(-c2cccc(C(=O)NCCCCc3ccccc3)c2)n1 | 310 nM | – |
| COc1ccccc1N1C(=O)CSC1c1cccc(C(=O)NCCc2ccc(Br)cc2)c1 (stereo not drawn) | 390 nM | IC50 (PANC-1 [2]): 540 nM |
| CCc1nc(-c2cncc(C(=O)NCCCCc3ccccc3)c2)n(-c2ccc(OC)cc2)n1 | 1350 nM | – |

Further lines, with some results ahead:

| IC50 (PANC-1 [1]) | Structure (SMILES) | also measured |
| --- | --- | --- |
| 220 nM | CCc1nc(-c2ccc(O)cc2)n(-c2cccc(C(=O)NCCCCc3ccccc3)c2)n1 | – |
| 3120 nM | COc1ccc(-c2nc(C)nn2-c2cccc(C(=O)NCCCOc3ccccc3)c2)cc1 | IC50 (PANC-1 [2]): 3560 nM |
| 140 nM | CCc1nc(-c2ccc(OC)cc2)n(-c2cccc(C(=O)NCCCCc3ccccc3)c2)n1 | Activity (Myoferlin [11]): Active; IC50 (PANC-1 [2]): 180 nM |
| 1620 nM | CCc1nc(-c2ccc(OC)cc2)n(-c2cncc(C(=O)NCCCCc3ccccc3)c2)n1 | – |
| 630 nM | COc1ccc(-c2nc(C)nn2-c2cccc(C(=O)NCCCCc3ccccc3)c2)cc1 | Activity (Myoferlin [12]): Active |
| 120 nM | CCc1nc(-c2ccc(OC)cn2)n(-c2cccc(C(=O)NCCCCc3ccccc3)c2)n1 | IC50 (PANC-1 [2]): 150 nM |
| 420 nM | CCc1nc(-c2cccc(C(=O)NCCCCc3ccccc3)c2)n(-c2ccc(OC)cc2)n1 | – |
| 9340 nM | COc1ccc(-c2nc(C)nn2-c2cccc(C(=O)NCCOCc3ccccc3)c2)cc1 | – |
| > 20000 nM | COc1ccc(-c2nc(C)nn2-c2cccc(C(=O)NCCCCCc3ccccc3)c2)cc1 | – |
| > 20000 nM | COc1ccc(-c2ncnn2-c2cccc(C(=O)NCCCCc3ccccc3)c2)cc1 | – |
| 640 nM | CCc1nc(-c2ccc(OC(F)(F)F)cc2)n(-c2cccc(C(=O)NCCCCc3ccccc3)c2)n1 | – |
| 830 nM | CCc1nc(-c2ccc(OC(F)F)cc2)n(-c2cccc(C(=O)NCCCCc3ccccc3)c2)n1 | – |
| 7680 nM | COc1ccc(-c2nc(C3CC3)nn2-c2cccc(C(=O)NCCCCc3ccccc3)c2)cc1 | – |
| 1680 nM | COc1ccc(-n2nc(C)nc2-c2cccc(C(=O)NCCCCc3ccccc3)c2)cc1 | – |
| > 20000 nM | COc1ccc(-c2nc(C(C)C)nn2-c2cccc(C(=O)NCCCCc3ccccc3)c2)cc1 | – |
| 16800 nM | CCOc1ccc(-c2nc(CC)nn2-c2cccc(C(=O)NCCCCc3ccccc3)c2)cc1 | – |
| 16800 nM | CCCCc1nc(-c2ccc(OC)cc2)n(-c2cccc(C(=O)NCCCCc3ccccc3)c2)n1 | – |
| 3020 nM | COc1ccc(-c2nc(C)nn2-c2cccc(C(=O)NCCCCc3ccc(Br)cc3)c2)cc1 | – |
| 810 nM | CCc1nc(-c2ccc(OC)nc2)n(-c2cccc(C(=O)NCCCCc3ccccc3)c2)n1 | – |
